Experimental data as given in patent US6794169B2, “UDP-N-acetylglucosamine: galactose-β1,3-N-acetylgalactosamine-α-R / (GlcNAc to GalNAc) β1,6-N-acetylglucosaminyltransferase, C2GnT3” (Glycozym ApS, priority 1999, dated 2004).

Columns and labels:
[1] = biological target: T1, C2GnT3 (Homo sapiens, UniProt Q9P109); assay: GlcNAc-transferase activity of recombinant soluble C2GnT3 with acceptor/donor substrates; type: biochemical; settings: for Substrate specificity, C2GnT3 activity: partially purified media of infected High Five cells, background subtracted; for C2GnT3 activity with acceptor substrate (in words): as acceptor substrate; for C2GnT3 activity with donor substrate (in words): as donor substrate, data not shown
T1 construct: An expression vector construct designed to encode amino acid residues 39-453 of C2GnT3; gp67 secretion signal of vector pAcGP67A (N); made in house; host or cells: Sf9 insect cells (baculovirus; culture supernatant); High Five cells for kinetic properties (partially purified)
T1 sequence (Q9P109 39-453): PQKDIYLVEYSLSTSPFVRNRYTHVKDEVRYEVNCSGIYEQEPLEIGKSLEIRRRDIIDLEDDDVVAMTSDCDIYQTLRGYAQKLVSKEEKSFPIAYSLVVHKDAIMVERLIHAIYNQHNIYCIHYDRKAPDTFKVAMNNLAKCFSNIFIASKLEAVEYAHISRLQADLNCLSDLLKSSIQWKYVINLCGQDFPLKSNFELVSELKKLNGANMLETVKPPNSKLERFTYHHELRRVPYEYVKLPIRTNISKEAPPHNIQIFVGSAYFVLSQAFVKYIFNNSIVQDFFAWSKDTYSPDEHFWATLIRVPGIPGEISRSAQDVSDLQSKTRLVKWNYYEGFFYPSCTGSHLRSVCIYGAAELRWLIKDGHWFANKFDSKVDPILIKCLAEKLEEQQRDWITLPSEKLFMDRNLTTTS
Text: with BamH1 and EcoRI restriction sites, respectively (FIG. 2). The PCR product was cloned between the BamHI and EcoRI sites of pAcGP67A (PharMingen), and the insert was fully sequenced. pAcGP67-C2GnT3-sol was co-transfected with Baculo-Gold™ DNA (PharMingen) as described previously (23). Recombinant Baculovirus was obtained after two successive amplifications in Sf9 cells grown in serum-containing medium, and titers of virus were estimated by titration in 24-well plates with monitoring of enzyme activities.
(§1) Controls included the pAcGP67-GalNAc-T3-sol (24). The kinetic properties were determined with partially purified enzymes expressed in High Five™ cells. Partial purification was performed by consecutive chromatography on Amberlite IRA-95, DEAE-Sephacryl and SP-Sepharose essentially as described (25; 25).
(§2) Standard assays were performed using culture supernatant from infected cells in 50 μl reaction mixtures containing 100 mM MES (pH 6.5), 0.1% Nonidet P-40, 150 μM UDP-[^14C]-GlcNAc (2,000 cpm/nmol) (Amersham Pharmacia Biotech), and the indicated concentrations of acceptor substrates (Sigma and Toronto Research Laboratories Ltd., see Table I for structures). Reaction products were quantified by chromatography on Dowex AG1-X8.

[2] = biological target: T2, C2GnT1 (Homo sapiens, UniProt Q02742); assay: GlcNAc-transferase activity of C2GnT1 with acceptor substrates; type: biochemical
T2 sequence (Q02742 1-428): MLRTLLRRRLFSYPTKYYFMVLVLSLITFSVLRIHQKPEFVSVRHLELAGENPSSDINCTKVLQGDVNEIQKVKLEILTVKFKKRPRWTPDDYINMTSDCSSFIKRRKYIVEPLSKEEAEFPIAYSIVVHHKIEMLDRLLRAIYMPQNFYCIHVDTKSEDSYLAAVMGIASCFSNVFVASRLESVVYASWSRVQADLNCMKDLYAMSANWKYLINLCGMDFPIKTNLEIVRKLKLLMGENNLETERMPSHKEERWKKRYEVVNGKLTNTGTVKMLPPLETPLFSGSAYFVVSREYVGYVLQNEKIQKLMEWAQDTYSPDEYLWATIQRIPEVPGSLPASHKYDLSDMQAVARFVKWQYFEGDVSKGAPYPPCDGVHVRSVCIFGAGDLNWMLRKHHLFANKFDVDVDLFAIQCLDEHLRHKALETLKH
Method: as §1, §2

Structure (SMILES) | Substrate specificity, C2GnT3 activity ([1]; acceptor substrate 2 mM) | Substrate specificity, C2GnT3 activity ([1]; acceptor substrate 10 mM) | Substrate specificity, C2GnT1 activity ([2]; acceptor substrate 2 mM) | Substrate specificity, C2GnT1 activity ([2]; acceptor substrate 10 mM) | C2GnT3 activity with acceptor substrate (in words) [1] | C2GnT3 activity with donor substrate (in words) [1] | Substrate inhibition of C2GnT3 enzyme activity ([1]; high acceptor concentrations up to 20 mM)
CC(=O)N[C@@H]1[C@@H](O[C@@H]2O[C@H](CO)[C@H](O)[C@H](O)[C@H]2O)[C@@H](O)[C@@H](CO)O[C@@H]1O [β-D-Gal-(1-3)-α-D-GalNAc] | 6.6 nmol/h/mg | 14.3 nmol/h/mg | 9.6 nmol/h/mg | 19.0 nmol/h/mg | – | – | –
CC(=O)N[C@H]1[C@@H](Oc2ccc([N+](=O)[O-])cc2)O[C@H](CO)[C@H](O)[C@@H]1O [α-D-GalNAc-1-p-Nph] | <0.1 nmol/h/mg | <0.1 nmol/h/mg | <0.1 nmol/h/mg | <0.1 nmol/h/mg | no activity | – | –
CO[C@@H]1O[C@H](CO)[C@H](O)[C@H](O[C@@H]2O[C@H](CO)[C@@H](O)[C@H](O)[C@H]2NC(C)=O)[C@H]1O [β-D-GlcNAc-(1-3)-β-D-Gal-1-Me] | <0.1 nmol/h/mg | <0.1 nmol/h/mg | <0.1 nmol/h/mg | <0.1 nmol/h/mg | no activity | – | –
CC(=O)NC1C(OC2C(O)C(CO)OC(Oc3ccc([N+](=O)[O-])cc3)C2NC(C)=O)OC(CO)C(O)C1O [β-D-GlcNAc-(1-3)-α-D-GalNAc-1-p-Nph] | <0.1 nmol/h/mg | <0.1 nmol/h/mg | <0.1 nmol/h/mg | <0.1 nmol/h/mg | – | – | –
CC(=O)N[C@H]1[C@@H](OP(=O)(O)OP(=O)(O)OC[C@H]2O[C@@H](n3ccc(=O)[nH]c3=O)[C@H](O)[C@@H]2O)O[C@H](CO)[C@@H](O)[C@@H]1O [UDP-GlcNAc, UDP-N-acetylglucosamine] | – | – | – | – | – | strict donor substrate specificity | –
CC(=O)N[C@H]1C(O)O[C@H](CO)[C@H](O)[C@@H]1O (stereo partly drawn) [D-GalNAc] | <0.1 nmol/h/mg | <0.1 nmol/h/mg | <0.1 nmol/h/mg | <0.1 nmol/h/mg | – | – | –
CC(=O)N[C@H]1[C@@H](Oc2ccc([N+](=O)[O-])cc2)O[C@H](CO)[C@H](O)[C@@H]1O[C@@H]1O[C@H](CO)[C@H](O)[C@H](O)[C@H]1O [β-D-Gal-(1-3)-α-D-GalNAc-1-p-Nph] | 18.1 nmol/h/mg | 26.1 nmol/h/mg | 16.2 nmol/h/mg | 23.6 nmol/h/mg | – | – | No substrate inhibition
CC(=O)N[C@H]1[C@H](O[C@H]2[C@@H](O)[C@@H](CO)O[C@@H](O[C@H]3[C@H](O)[C@@H](O)C(O)O[C@@H]3CO)[C@@H]2O)O[C@H](CO)[C@@H](O[C@@H]2O[C@H](CO)[C@H](O)[C@H](O)[C@H]2O)[C@@H]1O (mixture of isomers) [lacto-N-neo-tetraose] | <0.1 nmol/h/mg | <0.1 nmol/h/mg | <0.1 nmol/h/mg | <0.1 nmol/h/mg | no activity | – | –
CC(=O)N[C@H]1[C@@H](OP(=O)(O)OP(=O)(O)OC[C@H]2O[C@@H](n3ccc(=O)[nH]c3=O)[C@H](O)[C@@H]2O)O[C@H](CO)[C@H](O)[C@@H]1O [UDP-GalNAc] | – | – | – | – | – | no activity | –
